Results as given in patent US20230416329A1, “A PEPTIDE WITH DISULFIDE BONDS AND INHIBITORY ACTIVITY AGAINST SERINE PROTEASES, DERIVED HYBRID PEPTIDES THEREOF, AND USES THEREOF” (INSTITUTE OF MATERIA MEDICA , CHINESE ACADEMY OF MEDICAL …, priority 2020, published 2023).
Bridge positions count the residues as written; N and C are the ends. Peptide text beside a SMILES is read from it.

Target: porcine pancreatic elastase (Sus scrofa, UniProt P00772)
Assay: Elastase inhibitory activity of peptides (AAApNA hydrolysis; IC50, Ki, residual activity)
Type: biochemical
Conditions: for IC50 / Residual activity of elastase: elastase 0.5 μM, AAApNA 1 mM
Method: The inhibition constants of various synthetic active peptide inhibitors (molecular scaffolds) against seine proteases were measured. The substrates N-succinyl-Ala-Ala-Pro-Phe-p-nitroaniline (AAPFpNA), Nα—Benzoyl-L-arginine-4-nitroaniline hydrochloride (BApNA) and N-succinyl-[…] (AAApNA) are used in competitive binding reaction to determine the inhibitory activities against α-chymotrypsin, bovine trypsin, and porcine pancreatic elastase, respectively. Experiments for α-chymotrypsin and bovine trypsin inhibition were measured in 20 mM CaCl2, 50 mM Tris-HCl buffer (pH 7.8), and that for porcine elastase inhibition was measured in 50 mM Tris-HCl buffer (pH 8.0). The concentration of the peptide was measured using optical density (OD) at 280 nm. The Michaelis constant (Km) of the enzyme hydrolysis substrate is calculated from the initial rate of substrate hydrolysis at 405 nm. The absorbance value of the substrate was measured at 405 nm after complete hydrolysis. All data were processed using nonlinear regression.
• (1) Added a total 198 μL of reaction buffer (20 mM CaCl2, 50 mM Tris-HCl (pH 8.0)) into the 96 well plate, followed by preheating at 37° C. for 15 min. Then added 2 μL of different concentrations of substrates (pNA, dissolved in DMSO), and mixed by centrifugation at 500 rpm for 1 min. Finally, the plate was incubated at 37° C. for 30 min, and the absorbance value at 405 nm was measured. In the 200 μL of reaction system, the final concentrations of pNA were 0, 0.025, 0.05, 0.075, 0.1, 0.125, 0.15, 0.175, and 0.2 mM, respectively. Make three repetitions for each concentration and plot the OD405 m value with pNA concentration to obtain the standard curve. • (2) Added a total 190 μL of reaction buffer (20 mM CaCl2, 50 mM Tris-HCl (pH 8.0)) and 8 μL of 4.375 μM elastase into the 96 well plate, followed by preheating at 37° C. for 5 min. Then added 2 μL of different concentrations of substrates (AAApNA, dissolved in DMSO), and mixed by centrifugation at 500 rpm for 1 min. Finally, the plate was incubated at 37° C. for 30 min, and the absorbance value at 405 nm was measured. In the 200 μL of reaction system, the final concentrations of AAApNA were 0, 0.125, 0.166, 0.2, 0.25, 0.33, 0.6, 0.75, and 1.25 mM, respectively. Make three repetitions for each concentration and plot the OD405 nm value with time to obtain the corresponding curve. Divide the slope of the curve by the slope of the standard curve and the enzyme concentration to obtain the initial velocity V0 (mM/(min*mM protein). Plot the initial velocity V0 with the concentration of substrate AAApNA using Prism software, and the Michaelis constant Km value of elastase hydrolyzing AAApNA was obtained.
• (1) Added a total 190 μL of different concentrations of peptides (ECs) against elastase and reaction buffer (20 mM CaCl2, 50 mM Tris-HCl buffer (pH 8.0)) into the pre-cold 96 well plate, followed by preheating at 37° C. for 5 min and centrifugated at 500 rpm for 1 min and allowed to stand for 4 minutes. Then added 8 μL of 12.5 μM elastase and incubated at 37° C. for 10 min and centrifugated at 500 rpm for 1 min and allowed to stand for 9 minutes. Finally, added 2 μL of 100 mM AAApNA, and mixed by centrifugation at 500 rpm for 1 min. The plate was incubated at 37° C. for 60 min, and the absorbance value at 405 nm was measured. Three repetitions were made, and only reaction buffer and substrate were added in the blank control as the minimum absorption value (Min OD405 nm); Only reaction buffer, enzyme and substrate were added in the negative control as the maximum absorption value (Max OD405 nm). • (2) In the 200 μL of reaction system, the final concentrations of elastase and AAApNA were 0.5 μM and 1 mM, respectively. • (3) Data statistics
Residual activity of enzyme (%)=(1−(Max OD405 nm−Sample OD405 nm)/(Max OD405 nm−Min OD405 nm))*100 […]

Sequence of porcine pancreatic elastase (P00772 27-266): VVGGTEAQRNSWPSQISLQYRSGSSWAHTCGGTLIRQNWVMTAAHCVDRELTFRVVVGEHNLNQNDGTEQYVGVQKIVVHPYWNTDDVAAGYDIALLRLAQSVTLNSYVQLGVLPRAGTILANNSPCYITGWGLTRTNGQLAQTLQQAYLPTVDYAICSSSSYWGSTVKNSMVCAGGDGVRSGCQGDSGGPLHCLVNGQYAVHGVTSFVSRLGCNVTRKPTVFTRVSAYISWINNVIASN

## CC[C@H](C)[C@@H]1NC(=O)[C@@H]2CCCN2C(=O)[C@@H]2CCCN2C(=O)[C@H]([C@@H](C)CC)NC(=O)[C@H](CO)NC(=O)[C@H](C)NC(=O)[C@H]([C@@H](C)O)NC(=O)[C@H](CCC(=O)O)NC(=O)[C@H](CCCNC(=N)N)NC(=O)CNC(=O)[C@@H](N)CSSC[C@@H](C(=O)N[C@@H](CCC(N)=O)C(=O)O)NC1=O [EC8] (H-CGRETASIPPICQ-OH; disulfide 1-12; N-terminus and C-terminus assumed)
  IC50: > 50 µM

## CC[C@H](C)[C@@H]1NC(=O)[C@H](CO)NC(=O)[C@H](C)NC(=O)[C@H]([C@@H](C)O)NC(=O)[C@H](CCC(=O)O)NC(=O)[C@H](CCCNC(=N)N)NC(=O)CNC(=O)[C@@H](N)CSSC[C@@H](C(=O)N[C@@H](CCCCN)C(=O)O)NC(=O)[C@H](CCC(N)=O)NC(=O)[C@@H]2CCCN2C(=O)[C@@H]2CCCN2C1=O [EC9] (H-CGRETASIPPQCK-OH; disulfide 1-12; N-terminus and C-terminus assumed)
  IC50: > 50 µM

## CC[C@H](C)[C@@H]1NC(=O)[C@H](CO)NC(=O)[C@H](C)NC(=O)[C@H]([C@@H](C)O)NC(=O)[C@H](CCC(=O)O)NC(=O)[C@H](CCCNC(=N)N)NC(=O)CNC(=O)[C@@H](N)CSSC[C@@H](C(=O)O)NC(=O)[C@H](CCCCN)NC(=O)[C@H](CCC(N)=O)NC(=O)[C@@H]2CCCN2C(=O)[C@@H]2CCCN2C1=O [EC10] (H-CGRETASIPPQKC-OH; disulfide 1-13; N-terminus and C-terminus assumed)
  IC50: > 50 µM

## CC[C@H](C)[C@@H]1NC(=O)[C@H](CO)NC(=O)[C@H](C)NC(=O)[C@H]([C@@H](C)O)NC(=O)[C@H](CCC(=O)O)NC(=O)[C@H](CCCNC(=N)N)NC(=O)CNC(=O)[C@@H](N)CSSC[C@@H](C(=O)O)NC(=O)CNC(=O)[C@H](CCCCN)NC(=O)[C@H](CCC(N)=O)NC(=O)[C@@H]2CCCN2C(=O)[C@@H]2CCCN2C1=O [EC11] (H-CGRETASIPPQKGC-OH; disulfide 1-14; N-terminus and C-terminus assumed)
  IC50: > 50 µM

## CC[C@H](C)[C@@H]1NC(=O)[C@@H]2CCCN2C(=O)[C@@H]2CCCN2C(=O)[C@H]([C@@H](C)CC)NC(=O)[C@H](CO)NC(=O)[C@H](C)NC(=O)[C@H]([C@@H](C)O)NC(=O)[C@@H](NC(=O)[C@@H](N)CC(C)C)CSSC[C@@H](C(=O)N[C@@H](CCC(N)=O)C(=O)O)NC1=O [EC12] (H-LCTASIPPICQ-OH; disulfide 2-10; N-terminus and C-terminus assumed)
  inhibitory activity against elastase (in words): better inhibitory activity against Elastase
  IC50: 0.4 µM
Peptide 0.001 μM
  Residual activity of elastase: 98.8 ± 1.1%
Peptide 0.01 μM
  Residual activity of elastase: 97.8 ± 1.0%
Peptide 0.06 μM
  Residual activity of elastase: 98.2 ± 2.1%
Peptide 0.25 μM
  Residual activity of elastase: 72.2 ± 5.9%
Peptide 0.3 μM
  Residual activity of elastase: 59.9 ± 3.2%
Peptide 0.75 μM
  Residual activity of elastase: 25.1 ± 3.6%
Peptide 1 μM
  Residual activity of elastase: 12.7 ± 1.0%
Peptide 10 μM
  Residual activity of elastase: 1.3 ± 0.1%
Peptide 100 μM
  Residual activity of elastase: 0.2 ± 0.0%
Peptide 1000 μM
  Residual activity of elastase: 0.3 ± 0.0%
read-out: Ki against elastase
  Ki: 0.11 µM

## CC[C@H](C)[C@H](N)C(=O)N[C@H]1CSSC[C@@H](C(=O)N[C@H](C(=O)O)C(C)C)NC(=O)[C@H](CCC(N)=O)NC(=O)[C@H](C)NC(=O)[C@@H]2CCCN2C(=O)[C@H]([C@@H](C)CC)NC(=O)[C@H](CO)NC(=O)[C@H](CC(C)C)NC(=O)[C@H]([C@@H](C)O)NC1=O [EC13] (H-ICTLSIPAQCV-OH; disulfide 2-10; N-terminus and C-terminus assumed)
  IC50: > 50 µM

## CC[C@H](C)[C@@H]1NC(=O)[C@H](CO)NC(=O)[C@H](C)NC(=O)[C@H]([C@@H](C)O)NC(=O)[C@H](C)NC(=O)[C@H](Cc2ccc(O)cc2)NC(=O)CNC(=O)[C@@H](N)CSSC[C@@H](C(=O)N[C@@H](Cc2ccc(O)cc2)C(=O)O)NC(=O)[C@H](CCC(N)=O)NC(=O)[C@@H]2CCCN2C(=O)[C@@H]2CCCN2C1=O [EC15] (H-CGYATASIPPQCY-OH; disulfide 1-12; N-terminus and C-terminus assumed)
  IC50: > 50 µM

## CC[C@H](C)[C@@H]1NC(=O)[C@@H]2CCCN2C(=O)[C@@H]2CCCN2C(=O)[C@H]([C@@H](C)CC)NC(=O)[C@H](CO)NC(=O)[C@H](C)NC(=O)[C@H]([C@@H](C)O)NC(=O)[C@H](C)NC(=O)[C@H](CC(C)C)NC(=O)CNC(=O)CNC(=O)[C@@H](N)CSSC[C@@H](C(=O)N[C@@H](CCC(N)=O)C(=O)O)NC1=O [EC16] (H-CGGLATASIPPICQ-OH; disulfide 1-13; N-terminus and C-terminus assumed)
  IC50: > 50 µM

## CC[C@H](C)[C@@H]1NC(=O)[C@@H]2CCCN2C(=O)[C@@H]2CCCN2C(=O)[C@H]([C@@H](C)CC)NC(=O)[C@H](CO)NC(=O)[C@H](CC(C)C)NC(=O)[C@H]([C@@H](C)O)NC(=O)[C@H](C)NC(=O)[C@H](CC(C)C)NC(=O)CNC(=O)CNC(=O)[C@@H](N)CSSC[C@@H](C(=O)N[C@@H](CCC(N)=O)C(=O)O)NC1=O [EC17] (H-CGGLATLSIPPICQ-OH; disulfide 1-13)
  IC50: > 50 µM

## CC[C@H](C)[C@@H]1NC(=O)[C@H](CO)NC(=O)[C@H](C)NC(=O)[C@H]([C@@H](C)O)NC(=O)[C@@H](NC(=O)[C@@H](N)CC(C)C)CSSC[C@@H](C(=O)N[C@@H](CCC(N)=O)C(=O)O)NC(=O)[C@H](CCC(N)=O)NC(=O)[C@@H]2CCCN2C(=O)[C@@H]2CCCN2C1=O [EC18] (H-LCTASIPPQCQ-OH; disulfide 2-10; N-terminus and C-terminus assumed)
Peptide 0.001 μM
  Residual activity of elastase: 99.2 ± 2.0%
Peptide 0.01 μM
  Residual activity of elastase: 100.6 ± 1.5%
Peptide 0.1 μM
  Residual activity of elastase: 97.0 ± 4.0%
Peptide 0.2 μM
  Residual activity of elastase: 100.2 ± 2.0%
Peptide 0.4 μM
  Residual activity of elastase: 90.3 ± 0.5%
Peptide 0.6 μM
  Residual activity of elastase: 73.5 ± 4.8%
Peptide 1 μM
  Residual activity of elastase: 49.4 ± 3.3%
Peptide 6 μM
  Residual activity of elastase: 8.4 ± 0.4%
Peptide 10 μM
  Residual activity of elastase: 3.6 ± 0.5%
Peptide 100 μM
  Residual activity of elastase: 0.1 ± 0.0%
